According to ChEMBL document CHEMBL5390257, “Fused Tetrahydroquinolines Are Interfering with Your Assay” (J Med Chem, 2023):

How the values were obtained:
[1] = Inhibition of MurA (unknown origin) preincubated for 30 mins followed by substrate addition and measured after 8 mins by spectrometric analysis; parameters: species or system Bacteria
[2] = biological target: SH3 and multiple ankyrin repeat domains protein 3 (Mus musculus, UniProt Q4ACU6); experiment: Binding affinity to His-tagged murine Shank3 PDZ domain assessed as inhibition constant by fluorescence polarization assay
[3] = biological target: T1, Tyrosine-protein phosphatase non-receptor type 7 (Homo sapiens) (UniProt P35236); experiment: Inhibition of PTPN7 (unknown origin) using pNPP as substrate assessed as fraction of control at 100 uM by high-throughput screening assay relative to control
T1 sequence (whole entry): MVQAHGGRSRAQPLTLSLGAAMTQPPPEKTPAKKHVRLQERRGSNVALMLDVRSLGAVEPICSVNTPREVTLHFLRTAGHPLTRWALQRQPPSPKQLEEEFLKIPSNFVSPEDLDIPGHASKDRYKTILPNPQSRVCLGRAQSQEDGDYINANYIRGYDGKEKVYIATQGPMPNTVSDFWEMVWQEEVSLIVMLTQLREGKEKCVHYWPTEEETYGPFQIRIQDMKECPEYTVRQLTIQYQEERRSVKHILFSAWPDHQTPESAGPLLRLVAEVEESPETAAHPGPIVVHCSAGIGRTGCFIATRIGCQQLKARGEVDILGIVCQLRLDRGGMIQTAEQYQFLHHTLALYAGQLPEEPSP

[4] = biological target: T2, Tyrosine-protein phosphatase non-receptor type 5 (Homo sapiens) (UniProt P54829); experiment: Inhibition of PTPN5 (unknown origin) using pNPP as substrate assessed as fraction of control at 100 uM by high-throughput screening assay relative to control
T2 sequence (whole entry): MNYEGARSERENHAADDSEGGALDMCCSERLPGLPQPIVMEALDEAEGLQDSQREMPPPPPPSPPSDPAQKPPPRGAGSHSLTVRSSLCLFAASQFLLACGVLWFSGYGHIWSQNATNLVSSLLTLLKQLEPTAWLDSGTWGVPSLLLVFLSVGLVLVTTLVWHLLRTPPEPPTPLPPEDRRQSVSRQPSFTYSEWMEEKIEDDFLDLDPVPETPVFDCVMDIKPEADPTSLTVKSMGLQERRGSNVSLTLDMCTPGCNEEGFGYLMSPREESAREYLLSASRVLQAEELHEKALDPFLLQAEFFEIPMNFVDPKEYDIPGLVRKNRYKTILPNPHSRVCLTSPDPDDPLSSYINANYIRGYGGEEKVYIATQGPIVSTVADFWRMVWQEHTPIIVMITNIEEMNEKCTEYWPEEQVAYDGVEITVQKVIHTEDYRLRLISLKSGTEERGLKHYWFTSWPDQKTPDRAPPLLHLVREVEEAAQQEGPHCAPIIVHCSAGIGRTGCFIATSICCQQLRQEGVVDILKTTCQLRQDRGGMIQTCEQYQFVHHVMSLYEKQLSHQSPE

[5] = biological target: T3, Receptor-type tyrosine-protein phosphatase R (Homo sapiens) (UniProt Q15256); experiment: Inhibition of PTPRR (unknown origin) using pNPP as substrate assessed as fraction of control at 100 uM by high-throughput screening assay relative to control
T3 sequence (whole entry): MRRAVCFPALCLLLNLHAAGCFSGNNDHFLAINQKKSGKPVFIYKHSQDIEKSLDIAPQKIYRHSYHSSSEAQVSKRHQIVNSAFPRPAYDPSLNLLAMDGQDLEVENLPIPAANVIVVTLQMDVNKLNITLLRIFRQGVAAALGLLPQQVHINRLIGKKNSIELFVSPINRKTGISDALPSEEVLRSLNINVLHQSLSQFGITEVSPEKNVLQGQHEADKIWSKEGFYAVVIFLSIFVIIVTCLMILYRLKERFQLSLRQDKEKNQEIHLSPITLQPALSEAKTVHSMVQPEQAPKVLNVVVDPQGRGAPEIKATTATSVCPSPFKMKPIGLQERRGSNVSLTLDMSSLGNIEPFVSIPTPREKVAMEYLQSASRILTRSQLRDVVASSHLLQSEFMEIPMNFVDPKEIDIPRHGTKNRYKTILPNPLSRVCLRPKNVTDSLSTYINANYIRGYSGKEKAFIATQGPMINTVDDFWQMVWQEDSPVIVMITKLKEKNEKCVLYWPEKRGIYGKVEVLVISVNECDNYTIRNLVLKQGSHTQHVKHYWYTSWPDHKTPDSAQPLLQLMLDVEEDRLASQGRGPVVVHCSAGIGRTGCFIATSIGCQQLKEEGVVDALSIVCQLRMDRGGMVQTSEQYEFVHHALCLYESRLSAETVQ

[6] = biological target: T4, Tyrosine-protein phosphatase non-receptor type 1 (Homo sapiens) (UniProt P18031); experiment: Inhibition of PTP1B (unknown origin) using pNPP as substrate assessed as fraction of control at 100 uM by high-throughput screening assay relative to control
T4 sequence (whole entry): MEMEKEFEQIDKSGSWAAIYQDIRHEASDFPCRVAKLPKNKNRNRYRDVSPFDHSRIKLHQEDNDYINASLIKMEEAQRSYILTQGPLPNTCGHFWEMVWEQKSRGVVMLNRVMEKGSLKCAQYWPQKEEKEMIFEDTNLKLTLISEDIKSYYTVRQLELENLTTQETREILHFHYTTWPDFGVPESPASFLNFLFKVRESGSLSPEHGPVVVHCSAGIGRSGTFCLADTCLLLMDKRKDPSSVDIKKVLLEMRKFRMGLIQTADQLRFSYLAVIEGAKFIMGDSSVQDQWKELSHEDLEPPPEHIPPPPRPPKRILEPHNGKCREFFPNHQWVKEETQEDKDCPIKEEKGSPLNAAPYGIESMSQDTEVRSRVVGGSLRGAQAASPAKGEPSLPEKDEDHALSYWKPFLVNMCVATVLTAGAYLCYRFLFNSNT

[7] = biological target: Diacylglycerol kinase alpha (Sus scrofa, UniProt P20192); experiment: Inhibition of GST-fused pig DGK alpha expressed in Sf9 insect cells incubated for 2 hrs by HTS ADP-Glo DGK assay
[8] = Inhibition of Helicobacter pylori recombinant IspD domain of IspDF by HTS based photometric assay
[9] = biological target: T5, M-phase inducer phosphatase 2 (Homo sapiens, UniProt P30305); experiment: Inhibition of full-length 6His/GST-tagged recombinant human CDC25B using OMFP as substrate incubated for 60 mins by fluorescence based analysis
T5 sequence (P30305 whole entry): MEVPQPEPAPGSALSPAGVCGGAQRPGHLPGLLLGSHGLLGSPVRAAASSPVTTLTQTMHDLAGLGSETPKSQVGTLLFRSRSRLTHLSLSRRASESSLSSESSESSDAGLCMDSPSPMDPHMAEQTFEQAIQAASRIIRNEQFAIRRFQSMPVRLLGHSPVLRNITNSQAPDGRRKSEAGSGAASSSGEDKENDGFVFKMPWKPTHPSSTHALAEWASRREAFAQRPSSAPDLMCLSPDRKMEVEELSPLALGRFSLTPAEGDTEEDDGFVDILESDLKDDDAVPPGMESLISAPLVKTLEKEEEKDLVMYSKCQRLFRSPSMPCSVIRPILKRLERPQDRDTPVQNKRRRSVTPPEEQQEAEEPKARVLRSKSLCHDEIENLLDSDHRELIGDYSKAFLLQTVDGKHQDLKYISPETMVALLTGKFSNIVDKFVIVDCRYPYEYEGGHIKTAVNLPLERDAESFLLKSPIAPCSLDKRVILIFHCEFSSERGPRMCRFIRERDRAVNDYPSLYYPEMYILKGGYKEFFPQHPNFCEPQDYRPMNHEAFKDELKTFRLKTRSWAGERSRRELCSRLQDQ

[10] = biological target: T6, Tyrosine-protein phosphatase non-receptor type 1 (Homo sapiens, UniProt P18031); experiment: Inhibition of human recombinant PTP1B using OMFP as substrate incubated for 60 mins by fluorescence based analysis
T6 sequence (P18031 whole entry): T4 sequence (whole entry)

[11] = biological target: Serine/threonine-protein kinase PLK1 (Homo sapiens, UniProt P53350); experiment: Inhibition of GST-tagged recombinant PLK1 (unknown origin) using 5-carboxyfluorescein-KKRNRRLSVA-OH peptide as substrate incubated for 3 hrs in presence of ATP by HTS TR-FRET assay
[12] = Binding affinity to Yellow fever virus 17D recombinant NS5 N-terminal capping enzyme domain expressed in Escherichia coli BL21 (DE3) assessed as inhibition constant incubated for 1 hr by high-throughput screening fluorescence polarization assay

Chain of SH3 and multiple ankyrin repeat domains protein 3 (Q4ACU6 whole entry, the tested form may be a part): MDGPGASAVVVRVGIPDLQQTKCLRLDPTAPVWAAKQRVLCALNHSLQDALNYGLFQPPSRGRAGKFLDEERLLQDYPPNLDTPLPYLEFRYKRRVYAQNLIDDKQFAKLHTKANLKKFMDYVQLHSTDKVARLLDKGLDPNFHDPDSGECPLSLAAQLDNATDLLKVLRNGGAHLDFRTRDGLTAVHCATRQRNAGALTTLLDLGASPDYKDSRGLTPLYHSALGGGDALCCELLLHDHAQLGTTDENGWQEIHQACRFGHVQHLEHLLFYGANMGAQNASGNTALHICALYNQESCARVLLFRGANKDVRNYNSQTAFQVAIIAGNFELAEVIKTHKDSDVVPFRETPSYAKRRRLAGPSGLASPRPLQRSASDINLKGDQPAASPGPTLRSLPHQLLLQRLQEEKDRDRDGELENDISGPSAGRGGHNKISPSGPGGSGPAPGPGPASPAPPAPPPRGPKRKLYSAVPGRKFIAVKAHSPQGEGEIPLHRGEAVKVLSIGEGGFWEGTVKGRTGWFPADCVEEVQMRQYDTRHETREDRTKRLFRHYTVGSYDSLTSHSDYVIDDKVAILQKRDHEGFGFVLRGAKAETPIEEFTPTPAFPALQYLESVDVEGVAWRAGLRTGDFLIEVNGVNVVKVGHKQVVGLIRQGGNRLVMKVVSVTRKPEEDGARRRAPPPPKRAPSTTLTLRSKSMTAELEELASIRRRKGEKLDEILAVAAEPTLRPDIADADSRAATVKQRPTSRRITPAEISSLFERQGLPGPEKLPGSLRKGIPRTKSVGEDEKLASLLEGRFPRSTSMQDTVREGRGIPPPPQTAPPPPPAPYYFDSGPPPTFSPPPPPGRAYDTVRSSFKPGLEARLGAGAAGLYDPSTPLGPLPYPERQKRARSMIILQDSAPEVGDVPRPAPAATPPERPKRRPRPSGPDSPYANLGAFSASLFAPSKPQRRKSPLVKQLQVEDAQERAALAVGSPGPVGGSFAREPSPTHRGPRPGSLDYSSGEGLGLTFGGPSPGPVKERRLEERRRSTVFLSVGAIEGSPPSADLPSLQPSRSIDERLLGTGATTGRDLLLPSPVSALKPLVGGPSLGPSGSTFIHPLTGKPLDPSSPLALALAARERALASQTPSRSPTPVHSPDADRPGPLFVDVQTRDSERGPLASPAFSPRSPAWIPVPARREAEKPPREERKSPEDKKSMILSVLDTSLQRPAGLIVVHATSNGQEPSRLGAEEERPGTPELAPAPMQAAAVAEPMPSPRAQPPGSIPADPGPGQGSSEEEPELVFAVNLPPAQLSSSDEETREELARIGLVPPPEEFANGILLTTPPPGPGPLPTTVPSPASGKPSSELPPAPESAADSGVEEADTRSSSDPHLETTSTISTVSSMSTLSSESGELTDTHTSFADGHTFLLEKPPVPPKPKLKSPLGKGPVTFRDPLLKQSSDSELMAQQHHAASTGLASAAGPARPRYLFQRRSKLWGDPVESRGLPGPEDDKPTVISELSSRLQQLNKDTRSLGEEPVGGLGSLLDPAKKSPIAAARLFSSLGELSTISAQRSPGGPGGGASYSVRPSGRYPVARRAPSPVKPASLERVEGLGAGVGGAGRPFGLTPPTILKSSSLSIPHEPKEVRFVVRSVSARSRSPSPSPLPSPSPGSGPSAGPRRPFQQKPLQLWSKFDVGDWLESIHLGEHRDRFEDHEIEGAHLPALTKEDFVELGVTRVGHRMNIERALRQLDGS
Chain of Diacylglycerol kinase alpha (P20192 whole entry, the tested form may be a part): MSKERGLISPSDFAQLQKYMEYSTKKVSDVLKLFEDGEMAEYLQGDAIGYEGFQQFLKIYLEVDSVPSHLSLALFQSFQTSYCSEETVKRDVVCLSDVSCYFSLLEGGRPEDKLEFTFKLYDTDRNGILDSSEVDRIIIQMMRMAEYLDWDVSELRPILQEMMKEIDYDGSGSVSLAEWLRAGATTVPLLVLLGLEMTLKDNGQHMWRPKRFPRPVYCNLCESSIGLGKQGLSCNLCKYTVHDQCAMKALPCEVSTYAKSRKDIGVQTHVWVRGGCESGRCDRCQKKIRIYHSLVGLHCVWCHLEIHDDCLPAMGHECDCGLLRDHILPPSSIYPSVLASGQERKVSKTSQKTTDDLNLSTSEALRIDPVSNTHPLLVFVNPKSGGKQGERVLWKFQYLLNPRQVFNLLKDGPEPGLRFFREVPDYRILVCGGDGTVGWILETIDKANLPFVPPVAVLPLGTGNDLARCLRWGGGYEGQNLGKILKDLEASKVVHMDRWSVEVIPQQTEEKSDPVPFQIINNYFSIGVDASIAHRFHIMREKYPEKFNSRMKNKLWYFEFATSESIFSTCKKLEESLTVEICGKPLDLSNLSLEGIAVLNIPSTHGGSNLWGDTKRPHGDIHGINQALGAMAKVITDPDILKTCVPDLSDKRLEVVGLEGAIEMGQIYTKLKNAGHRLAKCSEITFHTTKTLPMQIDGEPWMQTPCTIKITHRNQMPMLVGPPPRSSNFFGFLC
Chain of Serine/threonine-protein kinase PLK1 (P53350 whole entry, the tested form may be a part): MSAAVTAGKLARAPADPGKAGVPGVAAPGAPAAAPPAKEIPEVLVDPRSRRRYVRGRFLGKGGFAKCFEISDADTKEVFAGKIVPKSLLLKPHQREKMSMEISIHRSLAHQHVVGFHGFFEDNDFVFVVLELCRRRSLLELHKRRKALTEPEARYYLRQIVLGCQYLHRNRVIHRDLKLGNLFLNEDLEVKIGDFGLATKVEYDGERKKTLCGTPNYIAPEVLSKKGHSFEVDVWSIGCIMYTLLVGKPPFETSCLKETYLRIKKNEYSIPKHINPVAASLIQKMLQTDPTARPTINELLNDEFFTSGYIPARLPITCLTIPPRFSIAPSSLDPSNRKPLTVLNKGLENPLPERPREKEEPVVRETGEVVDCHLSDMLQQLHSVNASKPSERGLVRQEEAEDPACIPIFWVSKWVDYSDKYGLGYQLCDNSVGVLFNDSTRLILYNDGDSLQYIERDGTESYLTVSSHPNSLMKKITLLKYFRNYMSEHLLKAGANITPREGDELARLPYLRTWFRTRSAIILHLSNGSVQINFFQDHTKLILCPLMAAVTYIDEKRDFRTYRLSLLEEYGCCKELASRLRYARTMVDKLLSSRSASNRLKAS

O=C(O)c1ccc2c(c1)NC(C(=O)O)C1CC=CC21 (stereo not drawn)
IC50 [1]: < 5 µM

O=C(O)c1ccc([N+](=O)[O-])c2c1N[C@@H](C(=O)O)[C@H]1CC=C[C@@H]21
Ki [2]: 17 µM

NC(=O)c1cccc2c1NC(C(=O)O)C1CC=CC21 (stereo not drawn)
IC50 [1]: < 5 µM

CC(=O)c1ccc2c(c1)C1C=CCC1C(C(=O)O)N2 (stereo not drawn)
fold change (FC) [3]: 0.41 | fold change (FC) [4]: 0.73 | IC50 [1]: < 5 µM | fold change (FC) [5]: 0.08 | fold change (FC) [6]: 0.23 | IC50 [7]: 6 µM

O=C(O)c1cccc2c1C1C=CCC1C(C(=O)O)N2 (stereo not drawn)
IC50 [1]: < 5 µM

O=C(O)C1Nc2ccc(Oc3ccccc3)cc2C2C=CCC12 (stereo not drawn)
IC50 [8]: 2.4 µM

O=C(O)C1Nc2ccccc2C2C=CCC12 (stereo not drawn)
fold change (FC) [3]: 0.41 | fold change (FC) [4]: 0.73 | fold change (FC) [5]: 0.08 | fold change (FC) [6]: 0.23

O=C(O)C1Nc2c(F)cccc2C2C=CCC12 (stereo not drawn)
fold change (FC) [3]: 0.41 | fold change (FC) [4]: 0.73 | fold change (FC) [5]: 0.08 | fold change (FC) [6]: 0.23

O=C(O)C1Nc2ccc(Br)cc2C2C=CCC12 (stereo not drawn)
fold change (FC) [3]: 0.41 | fold change (FC) [4]: 0.73 | fold change (FC) [5]: 0.08 | fold change (FC) [6]: 0.23

O=C(O)C1Nc2ccc(F)c(Cl)c2C2C=CCC12 (stereo not drawn)
IC50 [1]: < 5 µM

CCOC(=O)C1Nc2cccc(C(=O)O)c2C2C=CCC12 (stereo not drawn)
IC50 [1]: < 5 µM

O=C(O)C1Nc2c(O)cccc2C2C=CCC12 (stereo not drawn)
fold change (FC) [3]: 0.41 | fold change (FC) [4]: 0.73 | fold change (FC) [5]: 0.08 | fold change (FC) [6]: 0.23

Cc1ccc2c(c1)C1C=CCC1C(C(=O)O)N2 (stereo not drawn)
IC50 [1]: < 5 µM

O=C(O)c1cccc2c1NC(C(=O)O)C1CC=CC21 (stereo not drawn)
fold change (FC) [3]: 0.41 | fold change (FC) [4]: 0.73 | IC50 [1]: < 5 µM | fold change (FC) [5]: 0.08 | fold change (FC) [6]: 0.23 | IC50 [9]: 2.5 µM

CN(C)C(=O)c1ccc2c(c1)C1C=CCC1C(C(=O)O)N2 (stereo not drawn)
IC50 [1]: < 5 µM

O=C(O)c1ccc2c(c1)C1C=CCC1C(C(=O)O)N2 (stereo not drawn)
fold change (FC) [3]: 0.41 | fold change (FC) [4]: 0.73 | IC50 [1]: < 5 µM | IC50 [10]: 6.6 µM | fold change (FC) [5]: 0.08 | fold change (FC) [6]: 0.23 | IC50 [9]: 2.5 µM

O=C(O)c1ccc2c(c1)[C@@H]1C=CC[C@@H]1[C@H](c1ccccn1)N2
IC50 [11]: 17 µM

CC(=O)Nc1ccc(OC(=O)c2cccc3c2NC(C(=O)O)C2CC=CC32)cc1 (stereo not drawn)
IC50 [1]: < 5 µM

COc1ccc2c(c1)C1C=CCC1C(C(=O)O)N2 (stereo not drawn)
IC50 [1]: < 5 µM

O=C(O)C1Nc2ccc(Cl)cc2C2C=CCC12 (stereo not drawn)
IC50 [9]: 2.5 µM

O=C(O)C1Nc2ccc(F)cc2C2C=CCC12 (stereo not drawn)
IC50 [1]: < 5 µM

O=C(O)C1Nc2ccc(OC(F)(F)F)cc2C2C=CCC12 (stereo not drawn)
IC50 [1]: < 5 µM

CC(=O)Nc1ccc2c(c1)NC(C(=O)O)C1CC=CC21 (stereo not drawn)
IC50 [1]: < 5 µM

CNc1ccc2c(c1)C1C=CCC1C(C(=O)O)N2 (stereo not drawn)
IC50 [1]: < 5 µM

NC(=O)c1ccc2c(c1)C1C=CCC1C(C(=O)O)N2 (stereo not drawn)
IC50 [1]: < 5 µM

O=C(O)C1Nc2cc(-c3cccnc3)ccc2C2C=CCC12 (stereo not drawn)
IC50 [1]: < 5 µM

O=C(O)C1Nc2ccc(Nc3ccccc3)cc2C2C=CCC12 (stereo not drawn)
IC50 [1]: < 5 µM

O=C(O)c1ccc2c(c1)[C@@H]1C=CC[C@@H]1[C@H](C(=O)O)N2
Ki [2]: 70 µM

COC(=O)c1cccc2c1NC(C(=O)O)C1CC=CC21 (stereo not drawn)
IC50 [1]: < 5 µM

O=C(O)C1Nc2c(I)cccc2C2C=CCC12 (stereo not drawn)
Ki [12]: 7.1 µM
